According to patent publication US20120178158A1, “ADULT ANIMALS GENERATED FROM INDUCED PLURIPOTENT CELLS” (The Scripps Research Institute, priority 2009, published 2012):

Tests used:
Gtl2/Dlk1 (Gtl2 locus) = assay: Methylation / activity of the Gtl2 locus in iPS cell lines derived with or without VPA; format: cell-based, mouse; conditions: VPA+ (n = 15 cell lines)
Source text: In some embodiments, the induction conditions include contacting the cells with a histone deacetylase inhibitor or other compound that alters epigenetic marks. […] See, Stadfeld, et al., Nature. 465(7295):175-81 (2010); Liu et al., J Biol Chem. 285(25):19483-90 (2010). Normal ESCs express genes from one of the two parental chromosomes. Previous non-fully pluripotent IPSC lines have reduced expression from both parental Gtl loci by allowing extra epigenetic marking. These iPSC lines have methylated both Gtl2 loci and also may have distinct histone acetylation and methylation that turns off gene expression which correlates with or causes failure to generate live animals. The methods described herein produce a high frequency of cell lines that generate mice and these lines have an active and properly imprinted (i.e., hemi-methylated and histone acetylated) Gtl2 locus. When the epigenetic remodeling compound, VPA is removed from the method but no other variables are changed, the Gtl2 locus is no longer active or properly imprinted in the majority of cell lines. Therefore inclusion of VPA, or other histone deacetylase inhibitors or epigenetic remodeling compounds, regulates imprinting of the Gtl2 locus and other genomic regions that control pluripotency.

[1] = tested on: mouse embryonic fibroblasts (MEFs); assay: Dox-inducible lentiviral reprogramming of fibroblasts to iPSC colonies; format: cell-based
Source text: We reasoned that inappropriate expression of reprogramming genes during development could inhibit embryonic and postnatal development. Therefore, we designed a drug-inducible lentiviral reprogramming strategy to achieve tight control of transgene expression in iPSCs and their derivatives (FIG. 1b)^19. The four original reprogramming factors (Oct4, Sox2, Klf4 and cMyc) were placed under control of the tetO promoter, which is activated by the reverse tetracycline transactivator (rtTA) protein in the presence of the tetracycline analog doxycycline (dox). We used an enhanced version of the rtTA transcriptional activator protein (rtTAM2.2) that induces higher gene expression levels than the rtTAM2 protein^20. To promote complete reprogramming and facilitate isolation of fully reprogrammed iPSCs we exposed MEFs to the histone deacetylase inhibitor valproic acid (VPA), which has been reported to enhance reprogramming efficiency^21 and to select against incompletely reprogrammed cells by inhibiting cell division^22 (Supplementary methods).
Generation of iPSCs. Mouse embryonic fibroblasts (MEFs) were prepared from Pcdh21/Cre-Z/EG (iMZ lines) or Nex/Cre-Z/EG (iNZ lines) E13.5 embryos. Generation of iMZ lines: After 24 hours in culture, individual wells of ˜300,000 MEFs were transduced with lentiviruses (day 1) and split 1:2 (day 2) and 1:3 (day 3) to generate 6 wells of transduced MEFs. On post-transduction day 4, dox (10 μg/ml) was added to four wells to induce expression of reprogramming genes; three of these wells were also treated with VPA (1.9 mM). The remaining two wells were treated with nothing, or VPA alone. To maintain conditions for optimal MEF growth and viability, on post-transduction day five, the three dox+VPA wells were expanded into a 15 cm^2 dish while the other three conditions were expanded to 10 cm^2 dishes. […] On day 14, additional colonies were isolated, of which 12 were expanded (lines iMZ-9-21) and characterized further. […] On post-transduction day 17, all putative iPSC lines were transferred to fresh feeders in single 96 well plates. Cell lines were expanded into two wells on post-transduction day 21. Cells were maintained in dox+VPA until post-transduction day 23, when both were removed. All cell lines appeared to maintain ESC like morphology and proliferation rates. Lines were expanded to 24 well plates on day 24. Subsequently, cell lines were banked and maintained as described in the cell culture conditions section. Generation of iNZ lines: Initial reprogramming conditions were identical to those of iMZ lines except that cells were split 1:2 on post-transduction day 3 to generate four wells (dox+VPA, dox only, VPA only and no treatment). Cells were split once after dox and VPA addition. […]

SMILES | % iPS Cell Lines with Active Gtl2 Locus: % Locus Unmethylated High (>40%) (Gtl2/Dlk1 (Gtl2 locus); share of lines in class High (>40%)) [%] | % iPS Cell Lines with Active Gtl2 Locus: % Locus Unmethylated Low (1-10%) (Gtl2/Dlk1 (Gtl2 locus); share of lines in class Low (1-10%)) [%] | % iPS Cell Lines with Active Gtl2 Locus: % Locus Unmethylated Medium (10-40%) (Gtl2/Dlk1 (Gtl2 locus); share of lines in class Medium (10-40%)) [%] | % iPS Cell Lines with Active Gtl2 Locus: % Locus Unmethylated Negative (not detectable) (Gtl2/Dlk1 (Gtl2 locus); share of lines in class Negative (not detectable)) [%] | colony emergence in the absence of dox ([1]; iMZ MEFs, VPA alone 1.9 mM, no dox) | post-transduction day on which colonies were observed ([1]; iMZ lines, Pcdh21/Cre-Z/EG MEFs, dox 10 μg/ml, VPA 1.9 mM from day 4) | post-transduction day on which colonies were observed ([1]; iNZ lines, Nex/Cre-Z/EG MEFs) | colonies observed on day 14 ([1]; iNZ lines, Nex/Cre-Z/EG MEFs, post-transduction day 14)
CCCC(CCC)C(=O)O [VPA, valproic acid] | 27 | 40 | 33 | 0 | No colonies emerged |  |  | 
C[C@H]1c2cccc(O)c2C(=O)C2=C(O)[C@]3(O)C(=O)C(C(N)=O)=C(O)[C@@H](N(C)C)[C@@H]3[C@@H](O)[C@@H]21 [dox, doxycycline] |  |  |  |  |  | 11 | 11 | 19
